Measurements taken from patent US8084481B2, “Substituted arylimidazolone and triazolone as inhibitors of vasopressin receptors” (Bayer Pharma Aktiengesellschaft, priority 2006, dated 2011).

How the values were obtained:
[1] = biological target: T1, human V1a receptor (Homo sapiens, UniProt P37288); test: Cellular in vitro test for determination of the vasopressin receptor activity (aequorin luminescence, CHO cells), human V1a; assay type: cell-based; conditions: cell line transfected with the human V1a receptor, antagonism of [Arg8]-vasopressin, read-out: IC50 hV1a
T1 construct: expressed in transfected cells; host or cells: CHO K1 (ATCC), constitutively expressing a modified aequorin
Description: (§1) B-1. Cellular In Vitro Test for Determination of the Vasopressin Receptor Activity
(§2) The identification of agonists and antagonists of the V1a- and V2-vasopressin receptors in man and the rat and the quantification of the activity of the compounds according to the invention are effected by means of recombinant cell lines. These cells are originally derived from the ovarian epithelial cells of the hamster (Chinese Hamster Ovary, CHO K1, ATCC: American Type Culture Collection, Manassas, Va. 20108, USA). The test cell lines constitutively express a modified form of the calcium-sensitive photoprotein aequorin, which after reconstitution with the cofactor coelenterazine emits light on an increase in the free calcium concentrations [Rizzuto R, Simpson A W, Brini M, Pozzan T, Nature 358, 325-327 (1992)]. In addition, the cells are stably transfected with human or rat V1a- or V2 receptors. In the case of the Gs-coupled V2 receptors, the cells are stably transfected with a further gene which codes for the promiscuous Gα16-Protein [Amatruda T T, Steele D A, Slepak V Z, Simon M I, Proceedings of the National Academy of Science USA 88, 5587-5591 (1991)]. The resulting vasopressin receptor test cells react to stimulation of the recombinantly expressed vasopressin receptors with an intracellular release of calcium ions, which can be quantified by the resulting aequorin luminescence with a suitable luminometer [Milligan G, Marshall F, Rees S, Trends in Pharmacological Sciences 17, 235-237 (1996)].
(§3) On the day before the text, the cells are plated out in culture medium (DMEM, 10% FCS, 2 mM glutamine, 10 mM HEPES) in 384-well microtitre plates and kept in a cell incubator (96% atmospheric humidity, 5% v/v CO2, 37° C.). On the test day, the culture medium is replaced by a Tyrode solution (140 mM NaCl, 5 mM KCl, 1 mM MgCl2, 2 mM CaCl2, 20 mM glucose, 20 mM HEPES) which in addition contains the cofactor coelenterazine (50 μM), and the microtitre plate is then incubated for a further 3-4 hours. The test substances in various concentrations are placed beforehand in the wells of the microtitre plate for 10 to 20 minutes, before the agonist [Arg^8]-vasopressin is added and the resulting light signal immediately measured in the luminometer. The IC50 values are calculated by means of the computer program GraphPad PRISM (Version 3.02).

[2] = biological target: T2, human V2 receptor (Homo sapiens, UniProt P30518); test: Cellular in vitro test for determination of the vasopressin receptor activity (aequorin luminescence, CHO cells), human V2; assay type: cell-based; conditions: cell line transfected with the human V2 receptor, antagonism of [Arg8]-vasopressin, read-out: IC50 hV2
T2 construct: expressed in transfected cells; host or cells: CHO K1 (ATCC), constitutively expressing a modified aequorin and stably co-transfected with promiscuous G-alpha-16
Description: as §1, §2, §3

T1 sequence (P37288 whole entry): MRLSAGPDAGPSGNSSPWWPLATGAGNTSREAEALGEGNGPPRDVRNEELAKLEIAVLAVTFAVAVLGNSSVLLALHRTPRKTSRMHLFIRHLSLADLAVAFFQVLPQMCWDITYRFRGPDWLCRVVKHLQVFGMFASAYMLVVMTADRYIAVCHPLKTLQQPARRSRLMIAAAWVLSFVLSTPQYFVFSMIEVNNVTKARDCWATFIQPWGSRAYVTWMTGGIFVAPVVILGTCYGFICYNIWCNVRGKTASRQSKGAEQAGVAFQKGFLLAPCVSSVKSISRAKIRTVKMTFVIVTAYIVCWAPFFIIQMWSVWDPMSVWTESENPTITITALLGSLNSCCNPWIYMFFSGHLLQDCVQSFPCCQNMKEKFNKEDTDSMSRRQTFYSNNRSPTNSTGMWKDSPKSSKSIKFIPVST
T2 sequence (P30518 whole entry): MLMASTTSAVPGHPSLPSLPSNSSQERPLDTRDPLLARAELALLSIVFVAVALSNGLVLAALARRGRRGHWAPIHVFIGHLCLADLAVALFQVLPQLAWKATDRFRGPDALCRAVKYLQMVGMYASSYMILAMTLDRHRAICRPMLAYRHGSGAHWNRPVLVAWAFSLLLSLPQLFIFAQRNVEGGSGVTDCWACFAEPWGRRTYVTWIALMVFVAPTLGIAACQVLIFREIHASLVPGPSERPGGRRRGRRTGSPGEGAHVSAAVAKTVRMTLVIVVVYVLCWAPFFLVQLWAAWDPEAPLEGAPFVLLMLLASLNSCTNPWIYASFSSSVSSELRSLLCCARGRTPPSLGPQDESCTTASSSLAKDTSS

Row | IC50 [1] | IC50 [2] | SMILES
1 | 338 nM | 5 nM | O=C(Cn1nc(-c2ccc(Cl)cc2)n(CC(O)C(F)(F)F)c1=O)N[C@@H]1C[C@@H]1c1cccc(C(F)(F)F)c1 (mixture of isomers) [Example 357, 2-[3-(4-chlorophenyl)-5-oxo-4-(3,3,3-trifluoro-2-hydroxypropyl)-4,5-dihydro-1H-1,2,4-triazol-1-yl]-N-{(1RS,2RS)-[2-(3-trifluoromethyl-phenyl)cyclopropyl]}-acetamide]
2 | 12 nM | 2 nM | CC(C)(NC(=O)Cn1nc(-c2ccc(Cl)cc2)n(CC(O)C(F)(F)F)c1=O)c1cccc(C(F)(F)F)c1 (single isomer, unassigned) [Example 451, 2-[3-(4-chlorophenyl)-5-oxo-4-(3,3,3-trifluoro-2-hydroxypropyl)-4,5-dihydro-1H-1,2,4-triazol-1-yl]-N-{1-methyl-1-[3-(trifluoromethyl)phenyl]ethyl}-acetamide]
3 | 12 nM | 2 nM | CCC(O)Cn1c(-c2ccc(Cl)cc2)nn(CC(=O)NC(C)(C)c2cccc(C(F)(F)F)c2)c1=O (single isomer, unassigned) [Example 485, 2-[3-(4-chlorophenyl)-5-oxo-4-(2-hydroxybutyl)-4,5-dihydro-1H-1,2,4-triazol-1-yl]-N-{1-methyl-1-[3-(trifluoromethyl)phenyl]ethyl}-acetamide]
4 | 12 nM | 3 nM | CC(C)(NC(=O)Cn1cc(-c2ccc(Cl)cc2)n(CC(O)C(F)(F)F)c1=O)c1cccc(C(F)(F)F)c1 (single isomer, unassigned) [Example 501, 2-[4-(4-chlorophenyl)-2-oxo-3-(3,3,3-trifluoro-2-hydroxypropyl)-2,3-dihydro-1H-imidazol-1-yl]-N-{1-methyl-1-[3-(trifluoromethyl)phenyl]ethyl}-acetamide]
5 | 6300 nM | 180 nM | O=C(CCn1nc(-c2ccc(Cl)cc2)n(C2CC2)c1=O)NCc1cccc(C(F)(F)F)c1 [Example 25]
6 | 30 nM | 180 nM | CC(NC(=O)Cn1nc(-c2ccc(Cl)cc2)n(C2CC2)c1=O)c1ccccc1C(F)(F)F (centres unmarked) [Example 28]
7 | 170 nM | 9 nM | COc1ccc(Cn2c(-c3ccc(Cl)cc3)nn(CC(=O)NC(C)(C)c3cccc(C(F)(F)F)c3)c2=O)cc1 [Example 29]
8 | 1100 nM | 9 nM | O=C(Cn1nc(-c2ccc(Cl)cc2)n(CC2CCCCC2)c1=O)NCc1cccc(C(F)(F)F)c1 [Example 59]
9 | 38 nM | > 10000 nM | CC(C)Cn1c(-c2ccc(Cl)s2)nn(CC(=O)NCc2ccccc2C(F)(F)F)c1=O [Example 63]
10 | 390 nM | 26 nM | CC(C)(NC(=O)Cn1nc(-c2ccc(Cl)cc2)n(C2CC2)c1=O)c1cccc(C(F)(F)F)c1 [Example 75, 2-[3-(4-chlorophenyl)-4-cyclopropyl-5-oxo-4,5-dihydro-1H-1,2,4-triazol-1-yl]-N-{1-methyl-1-[3-(trifluoromethyl)phenyl]ethyl}acetamide]
11 | 320 nM | 8 nM | CC(C)Cn1c(-c2ccc(Cl)s2)nn(CC(=O)NC(C)(C)c2cccc(C(F)(F)F)c2)c1=O [Example 84]
12 | 94 nM | 1100 nM | CCn1c(-c2ccc(Cl)cc2)nn(CC(=O)NCc2ccccc2C(F)(F)F)c1=O [Example 101]
13 | 960 nM | 6 nM | O=C(Cn1nc(-c2ccc(Cl)cc2)n(Cc2ccc(F)cc2)c1=O)NCc1cccc(C(F)(F)F)c1 [Example 143]
14 | 95 nM | 7 nM | O=C(Cn1nc(-c2ccc(Cl)cc2)n(Cc2ccccc2F)c1=O)NCc1cccc(C(F)(F)F)c1 [Example 145]
15 | 3400 nM | 930 nM | CC(C)Cn1c(-c2ccccc2-c2ccccc2)nn(CC(=O)NCc2cccc(C(F)(F)F)c2)c1=O [Example 151]
16 | 42 nM | 12 nM | COc1ccc(Cn2c(-c3ccc(Cl)cc3)nn(CC(=O)NCc3cccc(C(F)(F)F)c3)c2=O)cc1 [Example 153, 2-[3-(4-chlorophenyl)-4-(4-methoxyphenylmethyl)-5-oxo-4,5-dihydro-1H-1,2,4-triazol-1-yl]-N-[3-(trifluoromethyl)phenylmethyl]acetamide]
17 | 440 nM | 420 nM | COc1ccccc1CCNC(=O)Cn1nc(-c2ccc(Cl)cc2)n(C2CC2)c1=O [Example 159]
18 | 230 nM | 63 nM | Cc1c(-c2ccc(Cl)cc2)n(C2CC2)c(=O)n1CC(=O)N[C@@H](C)c1cccc2ccccc12 [Example 207]
19 | 140 nM | 260 nM | CCn1c(-c2ccc(Cl)cc2)cn(CC(=O)NC(C)c2cccc(C(F)(F)F)c2)c1=O (centres unmarked) [Example 209]
20 | 6300 nM | 180 nM | CC(C(=O)NC(C)(C)c1cccc(C(F)(F)F)c1)n1cc(-c2ccc(Cl)cc2)n(C2CC2)c1=O (centres unmarked) [Example 214]

Row | IC50 [1] | IC50 [2] | SMILES
21 | 73 nM | 6 nM | COc1cc(Cl)ccc1-c1nn(CC(=O)NC(C)(C)c2cccc(C(F)(F)F)c2)c(=O)n1Cc1ccccc1F [Example 216, 2-[3-(4-chloro-2-methoxyphenyl)-4-(2-fluorobenzyl)-5-oxo-4,5-dihydro-1H-1,2,4-triazol-1-yl]-N-[1-methyl-1-(3-trifluoromethyl-phenyl)ethyl]-acetamide]
22 | 90 nM | 9 nM | Cc1ccc(-c2nn(CC(=O)NC(C)(C)c3cccc(C(F)(F)F)c3)c(=O)n2Cc2ccccc2F)s1 [Example 219]
23 | 165 nM | 30 nM | CC(C)(NC(=O)Cn1nc(-c2ccc(F)c(F)c2)n(Cc2ccccc2F)c1=O)c1cccc(C(F)(F)F)c1 [Example 221]
24 | 8 nM | 37 nM | COc1cc(Cl)ccc1-c1nn(CC(=O)NCc2ccccc2C(F)(F)F)c(=O)n1Cc1ccccc1F [Example 227]
25 | 783 nM | 83 nM | CC(C)(NC(=O)Cn1nc(-c2ccc(Cl)cc2Cl)n(C2CC2)c1=O)c1cccc(C(F)(F)F)c1 [Example 230]
26 | 76 nM | 271 nM | Cc1cc(Cl)ccc1-c1nn(CC(=O)NCCc2ccccc2C(F)(F)F)c(=O)n1Cc1ccccc1F [Example 241]
27 | 37 nM | 13 nM | C[C@H](NC(=O)Cn1nc(-c2ccc(Cl)s2)n(Cc2ccccc2F)c1=O)c1cccc(C(F)(F)F)c1 [Example 251]
28 | 18 nM | 447 nM | CC(NC(=O)Cn1nc(-c2ccc(Cl)s2)n(Cc2ccccc2F)c1=O)c1nccc2ccccc12 (centres unmarked) [Example 252]
29 | 30 nM | 154 nM | O=C(Cn1nc(-c2ccccc2O)n(Cc2cccc(F)c2)c1=O)NCCc1ccccc1C(F)(F)F [Example 260]
30 | 157 nM | 5 nM | COc1cc(Cl)ccc1-c1nn(CC(=O)NC(C)(C)c2cccc(C(F)(F)F)c2)c(=O)n1Cc1cccc(F)c1 [Example 262]
31 | 28 nM | 749 nM | CN(C)C(CNC(=O)Cn1nc(-c2ccc(Cl)cc2)n(Cc2ccccc2F)c1=O)c1ccccc1Cl (centres unmarked) [Example 265]
32 | 9 nM | 191 nM | O=C(Cn1nc(-c2ccc(Cl)cc2)n(Cc2ccccc2F)c1=O)NC1(Cc2ccccc2C(F)(F)F)CC1 [Example 284]
33 | 761 nM | 666 nM | O=C(Cn1nc(-c2ccc(Cl)cc2)n(Cc2ccccc2F)c1=O)NCc1c(C(F)(F)F)cccc1C(F)(F)F [Example 288]
34 | 54 nM | 9 nM | O=C(Cn1nc(-c2ccc(Cl)cc2)n(Cc2ccccc2F)c1=O)NCc1cccc(C(F)(F)F)c1Cl [Example 296]
35 | 93 nM | 784 nM | O=C(Cn1nc(-c2ccc(Cl)cc2)n(C2CC2)c1=O)NCC1(c2ccccc2F)CCCC1 [Example 305]
36 | 3 nM | 1020 nM | CC(C)(CNC(=O)Cn1nc(-c2ccc(Cl)cc2)n(C2CC2)c1=O)c1ccccc1C(F)(F)F [Example 313]
37 | 24 nM | 1520 nM | O=C(Cn1nc(-c2ccc(Cl)cc2)n(C2CC2)c1=O)NC1(Cc2ccccc2C(F)(F)F)CC1 [Example 320]
38 | 50 nM | 510 nM | COC(=O)[C@@H](Cc1ccccc1C(F)(F)F)NC(=O)Cn1nc(-c2ccc(Cl)cc2)n(C2CC2)c1=O [Example 321]
39 | 107 nM | 28 nM | Cc1c(CNC(=O)Cn2nc(-c3ccc(Cl)cc3)n(C3CC3)c2=O)cccc1C(F)(F)F [Example 325]
40 | 39 nM | 1150 nM | O=C(Cn1nc(-c2ccc(Cl)cc2)n(C2CC2)c1=O)NC(C(=O)NC1CC1)c1ccccc1C(F)(F)F (centres unmarked) [Example 340]
